Reference: patent US4442044A, “Process for preparing monoesters and diesters of N-alkyl substituted amino methyl phosphonic acid” (priority 1983, dated 1984)

Assays:
Assay type in all cases: in vivo
[1] = tested on: Hemp Sesbania; assay: post-emergent herbicidal activity, greenhouse; details: Table II, 4 WAT
Procedure, shortened: (§1)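 Post-emergence foliar spray at tabulated application rates, using aliquots of a 1.0% stock in acetone, THF or water plus ~0.4% emulsifier, applied to 2–3-week-old greenhouse plants. Plant injury was rated relative to controls roughly two and four weeks after treatment.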

[2] = tested on: Morningglory; assay: post-emergent herbicidal activity, greenhouse; details: 4 WAT
Procedure, shortened: as §1

[3] = tested on: Wild Buckwheat; assay: post-emergent herbicidal activity, greenhouse; details: Table II, 4 WAT
Procedure, shortened: as §1

[4] = tested on: Smartweed; assay: post-emergent herbicidal activity, greenhouse; details: 4 WAT
Procedure, shortened: as §1

[5] = tested on: Cocklebur; assay: post-emergent herbicidal activity, greenhouse; details: Table II, 4 WAT
Procedure, shortened: as §1

[6] = tested on: Downy Brome; assay: post-emergent herbicidal activity, greenhouse; details: Table II, 4 WAT
Procedure, shortened: as §1

[7] = tested on: Rice; assay: post-emergent herbicidal activity, greenhouse; details: Table II, 4 WAT
Procedure, shortened: as §1

[8] = tested on: Barnyardgrass; assay: post-emergent herbicidal activity, greenhouse; details: 4 WAT
Procedure, shortened: as §1

[9] = tested on: Quackgrass; assay: post-emergent herbicidal activity, greenhouse; details: Table I, 4 WAT, 11.2 kg/h
Procedure, shortened: as §1

[10] = tested on: Yellow Nutsedge; assay: post-emergent herbicidal activity, greenhouse; details: Table I, 4 WAT, 5.6 kg/h
Procedure, shortened: as §1

[11] = tested on: Sugar Beet; assay: post-emergent herbicidal activity, greenhouse; details: Table II, 4 WAT
Procedure, shortened: as §1

[12] = tested on: Panicum Spp; assay: post-emergent herbicidal activity, greenhouse; details: Table II, 4 WAT
Procedure, shortened: as §1

[13] = tested on: Wheat; assay: post-emergent herbicidal activity, greenhouse; details: Table II, 4 WAT
Procedure, shortened: as §1

[14] = tested on: Sorghum; assay: post-emergent herbicidal activity, greenhouse; details: Table II, 4 WAT
Procedure, shortened: as §1

[15] = tested on: Crabgrass; assay: post-emergent herbicidal activity, greenhouse; details: Table II, 4 WAT
Procedure, shortened: as §1

[16] = tested on: Soybean; assay: post-emergent herbicidal activity, greenhouse; details: Table II, 4 WAT
Procedure, shortened: as §1

[17] = tested on: Velvetleaf; assay: post-emergent herbicidal activity, greenhouse; details: 4 WAT
Procedure, shortened: as §1

[18] = tested on: Lambsquarters; assay: post-emergent herbicidal activity, greenhouse; details: 4 WAT
Procedure, shortened: as §1

[19] = tested on: Morningglory; assay: pre-emergent herbicidal activity, soil incorporation; details: Table III, 2 WAT, 11.2 kg/h
Source text: (§2) A good grade of top soil is placed in aluminum pans and compacted to a depth of 0.95 to 1.27 cm. from the top of each pan. A predetermined number of seeds or vegetative propagules of each of several plant species are placed on top of the soil in each pan and then pressed down. Herbicidal compositions prepared as in the previous example are applied by admixture with or incorporation in the top layer of soil.
(§3) In this method, the soil required to cover the seeds and propagules is weighed and admixed with a herbicidal composition containing a known amount of the active ingredient (compound of this invention). The pans are then filled with the admixture and leveled. Watering is carried out by permitting the soil in the pans to absorb moisture through apertures in the pan bottoms. The seed and propagule containing pans are placed on a wet sand bench and maintained for approximately two weeks under ordinary conditions of sunlight and watering. At the end of this period, the number of emerged plants of each species is noted and compared to an untreated control.
(§4) The pre-emergent herbicidal activity index used below is based upon average percent control of each species as follows: […]

[20] = tested on: Smartweed; assay: as above; details: Table III, 2 WAT, 11.2 kg/h
Source text: as §2, §3, §4

[21] = tested on: Cocklebur; assay: as above; details: Table III, 2 WAT, 11.2 kg/h
Source text: as §2, §3, §4

[22] = tested on: Downy Brome; assay: as above; details: Table III, 2 WAT, 11.2 kg/h
Source text: as §2, §3, §4

[23] = tested on: Canada Thistle; assay: as above; details: Table III, 2 WAT, 11.2 kg/h
Source text: as §2, §3, §4

[24] = tested on: Barnyardgrass; assay: as above; details: Table III, 2 WAT, 11.2 kg/h
Source text: as §2, §3, §4

[25] = tested on: Quackgrass; assay: as above; details: Table III, 2 WAT, 11.2 kg/h
Source text: as §2, §3, §4

[26] = tested on: Yellow Nutsedge; assay: as above; details: Table III, 2 WAT, 11.2 kg/h
Source text: as §2, §3, §4

[27] = tested on: Johnsongrass; assay: as above; details: Table III, 2 WAT, 11.2 kg/h
Source text: as §2, §3, §4

[28] = tested on: Velvetleaf; assay: as above; details: Table III, 2 WAT, 11.2 kg/h
Source text: as §2, §3, §4

[29] = tested on: Lambsquarters; assay: as above; details: Table III, 2 WAT, 11.2 kg/h
Source text: as §2, §3, §4

CCOC(=O)CNCP(=O)(O)OC(C)C#N (stereo not drawn) [Example 5, glycine, N-[[(1-cyanoethoxy)hydroxy-phosphinyl]methyl]ethyl ester]
post-emergent herbicidal activity index ([1]; 0.28 kg/h): 1 (25-49% control) | post-emergent herbicidal activity index ([1]; 1.12 kg/h): 2 (50-74% control) | post-emergent herbicidal activity index ([1]; 5.6 kg/h): 3 (75-99% control) | post-emergent herbicidal activity index ([2]; Table I, 5.6 kg/h): 3 (75-99% control) | post-emergent herbicidal activity index ([2]; Table I, 11.2 kg/h): 4 (100% control) | post-emergent herbicidal activity index ([2]; Table II, 0.28 kg/h): 2 (50-74% control) | post-emergent herbicidal activity index ([2]; Table II, 1.12 kg/h): 2 (50-74% control) | post-emergent herbicidal activity index ([2]; Table II, 5.6 kg/h): 4 (100% control) | post-emergent herbicidal activity index ([3]; 0.28 kg/h): 0 (0-24% control) | post-emergent herbicidal activity index ([3]; 1.12 kg/h): 2 (50-74% control) | post-emergent herbicidal activity index ([3]; 5.6 kg/h): 4 (100% control) | post-emergent herbicidal activity index ([4]; Table I, 5.6 kg/h): 4 (100% control) | post-emergent herbicidal activity index ([4]; Table I, 11.2 kg/h): 4 (100% control) | post-emergent herbicidal activity index ([4]; Table II, 0.28 kg/h): 2 (50-74% control) | post-emergent herbicidal activity index ([4]; Table II, 1.12 kg/h): 4 (100% control) | post-emergent herbicidal activity index ([4]; Table II, 5.6 kg/h): 4 (100% control) | post-emergent herbicidal activity index ([5]; 0.28 kg/h): 2 (50-74% control) | post-emergent herbicidal activity index ([5]; 1.12 kg/h): 2 (50-74% control) | post-emergent herbicidal activity index ([5]; 5.6 kg/h): 4 (100% control) | post-emergent herbicidal activity index ([6]; 0.28 kg/h): 1 (25-49% control) | post-emergent herbicidal activity index ([6]; 1.12 kg/h): 2 (50-74% control) | post-emergent herbicidal activity index ([6]; 5.6 kg/h): 3 (75-99% control) | post-emergent herbicidal activity index ([7]; 0.28 kg/h): 0 (0-24% control) | post-emergent herbicidal activity index ([7]; 1.12 kg/h): 2 (50-74% control) | post-emergent herbicidal activity index ([7]; 5.6 kg/h): 4 (100% control) | post-emergent herbicidal activity index ([8]; Table I, 5.6 kg/h): 4 (100% control) | post-emergent herbicidal activity index ([8]; Table I, 11.2 kg/h): 4 (100% control) | post-emergent herbicidal activity index ([8]; Table II, 0.28 kg/h): 3 (75-99% control) | post-emergent herbicidal activity index ([8]; Table II, 1.12 kg/h): 3 (75-99% control) | post-emergent herbicidal activity index ([8]; Table II, 5.6 kg/h): 4 (100% control) | post-emergent herbicidal activity index [9]: 4 (100% control) | post-emergent herbicidal activity index [10]: 3 (75-99% control) | post-emergent herbicidal activity index ([11]; 0.28 kg/h): 1 (25-49% control) | post-emergent herbicidal activity index ([11]; 1.12 kg/h): 2 (50-74% control) | post-emergent herbicidal activity index ([11]; 5.6 kg/h): 4 (100% control) | post-emergent herbicidal activity index ([12]; 0.28 kg/h): 3 (75-99% control) | post-emergent herbicidal activity index ([12]; 1.12 kg/h): 4 (100% control) | post-emergent herbicidal activity index ([12]; 5.6 kg/h): 4 (100% control) | post-emergent herbicidal activity index ([13]; 0.28 kg/h): 1 (25-49% control) | post-emergent herbicidal activity index ([13]; 1.12 kg/h): 3 (75-99% control) | post-emergent herbicidal activity index ([13]; 5.6 kg/h): 4 (100% control) | post-emergent herbicidal activity index ([14]; 0.28 kg/h): 3 (75-99% control) | post-emergent herbicidal activity index ([14]; 1.12 kg/h): 3 (75-99% control) | post-emergent herbicidal activity index ([14]; 5.6 kg/h): 4 (100% control) | post-emergent herbicidal activity index ([15]; 0.28 kg/h): 3 (75-99% control) | post-emergent herbicidal activity index ([15]; 1.12 kg/h): 4 (100% control) | post-emergent herbicidal activity index ([15]; 5.6 kg/h): 4 (100% control) | post-emergent herbicidal activity index ([16]; 0.28 kg/h): 1 (25-49% control) | post-emergent herbicidal activity index ([16]; 1.12 kg/h): 2 (50-74% control) | post-emergent herbicidal activity index ([16]; 5.6 kg/h): 4 (100% control) | post-emergent herbicidal activity index ([17]; Table I, 11.2 kg/h): 4 (100% control) | post-emergent herbicidal activity index ([17]; Table II, 0.28 kg/h): 1 (25-49% control) | post-emergent herbicidal activity index ([17]; Table II, 1.12 kg/h): 2 (50-74% control) | post-emergent herbicidal activity index ([17]; Table II, 5.6 kg/h): 4 (100% control) | post-emergent herbicidal activity index ([18]; Table I, 11.2 kg/h): 4 (100% control) | post-emergent herbicidal activity index ([18]; Table II, 0.28 kg/h): 2 (50-74% control) | post-emergent herbicidal activity index ([18]; Table II, 1.12 kg/h): 4 (100% control) | post-emergent herbicidal activity index ([18]; Table II, 5.6 kg/h): 4 (100% control) | pre-emergent herbicidal activity index [19]: 0 (1-24% control) | pre-emergent herbicidal activity index [20]: 0 (1-24% control) | pre-emergent herbicidal activity index [21]: 0 (1-24% control) | pre-emergent herbicidal activity index [22]: 0 (1-24% control) | pre-emergent herbicidal activity index [23]: 3 (75-100% control) | pre-emergent herbicidal activity index [24]: 0 (1-24% control) | pre-emergent herbicidal activity index [25]: 2 (50-74% control) | pre-emergent herbicidal activity index [26]: 1 (25-49% control) | pre-emergent herbicidal activity index [27]: 0 (1-24% control) | pre-emergent herbicidal activity index [28]: 0 (1-24% control) | pre-emergent herbicidal activity index [29]: 3 (75-100% control)
